Where two headings read alike, the source gives them in different places.
Experiments:
[1] = tested on: L. donovani-iRFP axenic amastigotes; experiment: Antileishmanial effect on axenic amastigotes (iRFP fluorescence viability, 72 h); format: cell-based; details: Leishmania donovani
Protocol: (§1) For efficacy studies, L. donovani-iRFP, a genetically modified strain of L. donovani LV9 constitutively expressing the gene encoding the infrared fluorescent protein (iRFP) ([Melcón-Fernández et al., 2023]), was used. This strain was grown as promastigotes in Schneider's insect medium (Sigma-Aldrich, Merck, Darmstadt, Germany) supplemented with 20 % (v/v) foetal bovine serum (FBS) (Gibco, ThermoFisher Scientific, Waltham, MA, USA) and […] antibiotic cocktail (100 U/mL penicillin and 100 μg/mL streptomycin) (Hyclone, ThermoFisher Scientific, Waltham, MA, USA) at 26 °C until mice were infected ([Carballeira et al., 2016]). Axenic and intramacrophage amastigotes were isolated from six-to eight-week-old female Balb/c mice (see below) that had been infected intraperitoneally with 1.5 × 10^9 metacyclic L. donovani-iRFP promastigotes. To obtain axenic amastigotes, bone marrow was extracted from the femur and tibia of 8- to 10-week-old infected mice and passed through a 100 μm cell strainer. After centrifugation at 3500 rcf for 10 min at room temperature, cell suspensions were resuspended in medium containing 15 mM KCl; 136 mM KH2PO4; 10 mM K2HPO4.3H2O; 0.5 mM MgSO4.7H2O; 24 mM NaHCO3; 22 mM glucose; 1 mM glutamine, 1 × RPMI 1640 vitamin mix (Sigma-Aldrich, Merck, Darmstadt, Germany), 10 mM folic acid, 100 mM adenosine, 1 × RPMI amino acid mix (Sigma-Aldrich, Merck, Darmstadt, Germany), 5 mg/mL hemin, 25 mM 2-morpholinoethanesulfonic acid (MES) pH 5.6, supplemented with 10 % FBS (Gibco, ThermoFisher Scientific, Waltham, MA, USA) and antibiotic cocktail, and incubated at 37 °C and 5 % CO2. To obtain intramacrophage amastigotes, spleens from infected Balb/c mice were cut into pieces, ground with 2 mg/mL collagenase D (Merck, Darmstadt, Germany) and passed through a 100 μm cell strainer. The splenocyte-enriched cell suspension containing intramacrophage amastigotes was resuspended in RPMI medium (Gibco, Fisher Scientific International Inc., Pittsburgh, PA, USA) supplemented with 20 % FBS, 1 mM sodium pyruvate, 24 mM NaHCO3, 2 mM L-glutamine, 1 × RPMI vitamins, 25 mM HEPES pH 7.2 and antibiotic cocktail ([Ashok et al., 2016]).
(§2) The antileishmanial effect of the nitrofurans selected in this study was tested both in vitro on axenic L. donovani-iRFP amastigotes and ex vivo on intramacrophage amastigotes according to previously published methods ([Melcón-Fernández et al., 2023], [2024]; [Andrés-Rodríguez et al., 2024]). Assays were performed in a final volume of […] containing 20,000 axenic amastigotes or a number of L. donovani-iRFP-infected murine splenocytes representing 150,000 relative fluorescence units (RFU), in each well of a black 384-well microtiter plate with optical bottom. In addition, 40 μL of one-half serial dilutions of each compound in amastigotes culture medium (for axenic amastigotes) or in supplemented RPMI medium (for intramacrophage amastigotes) were added to each well. Positive (amphotericin B at a final concentration of 18 μM) and negative (0.1 % v/v DMSO) controls were included on each plate. The plates were incubated at 37 °C and 5 % CO2 for a maximum of 72 h. Fluorescence emitted by viable L. donovani-iRFP was measured on an Odyssey infrared imaging system (Li-Cor, NE, USA).
(§3) All experiments were carried out in triplicate and included at least three technical replicates. […] The SI was calculated from the CC50/EC50 ratio.

[2] = tested on: L. donovani-iRFP intramacrophage amastigotes; experiment: Ex vivo antileishmanial effect on intramacrophage amastigotes (infected murine splenocytes, iRFP fluorescence, 72 h); format: cell-based; details: Leishmania donovani, Splenocyte
Protocol: as §1, §2, §3

[3] = Cytotoxicity, alamarBlue, 72 h; format: cell-based; details: human
Protocol: (§4) For cytotoxicity tests, several mammalian cell lines were used. […] Primary cell cultures were also used to evaluate cytotoxicity. […] BMDM cells were differentiated for one week with 30 % […] from L929 cell line.
(§5) The in vitro cytotoxicity of the selected nitrofurans was evaluated in HepG2, RAW 264.7 cells, splenocytes and BMDM. In each well of a 96-well microtitre plate, 100 μL containing 10,000 HepG2 or RAW 264.7 cells were incubated for 24h at 37 °C and 5 % CO2 to allow the cells to settle. For primary cells, 100 μL containing 100,000 BMDM or 1,000,000 splenocytes were added to each well. Subsequently, […] of one-half serial dilutions of each compound diluted in DMEM (for HepG2 cells), RPMI medium (for RAW cells), splenocyte medium (for splenocytes) or BMDM medium supplemented with 10 % GM-CSF (for BMDM), were added to each well. The cytotoxic effect of the compounds was measured after 72 h of incubation at 37 °C and 5 % CO2. For this purpose, a 10 % (v/v) of the alamarBlue™ cell viability reagent (Invitrogen, Fisher Scientific International Inc., Pittsburgh, PA, USA) was added, and the reaction was incubated for 4 h at 37 °C and 5 % CO2. Fluorescence was measured using a Varioskan Lux spectrophotometer (ThermoFisher Scientific, Waltham, MA, USA). Positive controls consisting of 0.1 % (v/v) H2O2, and negative controls, consisting of 0.1 % (v/v) DMSO, were also included on each plate.
as §3

[4] = Cytotoxicity, alamarBlue, 72 h; format: cell-based, murine; details: mouse
Protocol: as §4, §5, §3

[5] = Cytotoxicity in primary splenocytes, alamarBlue, 72 h; format: cell-based; details: mouse
Protocol: as §4, §5, §3

[6] = Cytotoxicity in bone marrow-differentiated macrophages, alamarBlue, 72 h; format: cell-based; details: mouse
Protocol: as §4, §5, §3

[7] = tested on: L. donovani-iRFP axenic amastigotes; experiment: ROS production by axenic amastigotes (DCFH-DA, flow cytometry); format: cell-based, Leishmania donovani
Protocol: To assess ROS production in L. donovani-iRFP, axenic amastigotes were treated with nitrofurans at the concentration equivalent to their EC50 calculated in viability experiments. As positive control of oxidative stress induction, cultures were treated with 0.01 % H2O2 (v/v), whereas 0.03 % (v/v) DMSO was added as negative control. After an incubation period of 3 h at 37 °C, cells were harvested by centrifugation at 3500 rcf for 10 min, washed in phosphate-buffered saline (PBS), centrifuged again and resuspended in PBS. Cells were labeled with 5 μM 2′,7′-dichlorofluorescein diacetate (DCFH-DA, MedChemExpress) for 30 min at 37 °C. Then, cells were centrifuged at 3500 rcf for 5 min, washed, and resuspended in PBS. The cell suspension was stored at 4 °C until the analysis by flow cytometry, which was performed in a CytoFLEX SRT (Beckman Coulter). The experiment was carried out in triplicate and included three technical replicates.

L. donovani TryR = target: T1, L. donovani TryR (Leishmania donovani, UniProt P39050); experiment: biochemical; details: for Type of inhibition: Lineweaver-Burk double reciprocal plot, varying T[S]2
T1 construct: endogenous in cells; host or cells: L. donovani-iRFP (LV9) axenic amastigotes, crude cell extract
Protocol: The activity of L. donovani TryR was measured in the presence of different concentrations of nitrofurans according to the protocol previously described ([Melcón-Fernández et al., 2023]). Briefly, 1 × 10^10 L. donovani-iRFP axenic amastigotes were washed twice in PBS and lysed with a solution containing 1 mM EDTA, 40 mM HEPES, 50 mM Tris HCl pH 7.5, 2 % (v/v) Triton X-100 and Pierce™ Protease Inhibitors Mini Tablets (ThermoFisher Scientific, Waltham, MA, USA). Cell extracts were prepared by mechanical disruption of the cells with 0.5 mm diameter glass beads (Merck, Darmstadt, Germany) and the supernatant obtained by centrifugation at 10,000 rcf for 5 min at 4 °C was used to measure TryR activity in 96-well plates. […] Cell extracts diluted in Tris HCl pH 7.5 (0.43 μg of total protein in 50 μL) were added to launch the reaction. The negative control consisted of 2.5 % DMSO, whereas the blank reaction included the TryR assay solution without T [S]2. […] To determine steady-state conditions, enzymatic activity was measured at 412 nm (ε = 14,150 M^−1 cm^−1) for a period of up to 120 min (with 5 min intervals) at 26 °C in a Varioskan Lux spectrophotometer (ThermoFisher Scientific, Waltham, MA, USA). The experiment was carried out in triplicate and included three technical replicates.

Leishmania = tested on: Leishmania; design: method as in Domínguez-Asenjo et al., 2021; details: oral administration, spleen and liver; ref Domínguez-Asenjo et al., 2021; cited from earlier work
L. major = tested on: L. major; design: method as in Domínguez-Asenjo et al., 2021; details: ref Domínguez-Asenjo et al., 2021; cited from earlier work
S. typhimurium TA100 = experiment: Ames mutagenicity test (Ames 384-ISO Well Test); details: for Mutagenic effect TA100-S9: with metabolic activation (S9 mix); for Mutagenic effect TA100: without S9 mix
[8] = compound at its axenic EC50, 3 h
[9] = HepG2 cells, 72 h, alamarBlue, read-out: HepG2 cells CC50
[10] = RAW 264.7 cells, 72 h, alamarBlue, read-out: RAW 264.7 cells CC50
[11] = primary splenocytes from healthy, non-infected mice, 72 h, alamarBlue, uninfected mice, read-out: Splenocytes CC50
[12] = bone marrow-differentiated macrophages (BMDM), 72 h, alamarBlue, uninfected mice, read-out: BMDM CC50
[13] = T[S]2 25-150 μM, inhibitor 6.25-100 μM, NADPH 0.20 mM, read-out: Ki
[14] = positive control 0.01 % (v/v), 3 h

T1 sequence (P39050 whole entry): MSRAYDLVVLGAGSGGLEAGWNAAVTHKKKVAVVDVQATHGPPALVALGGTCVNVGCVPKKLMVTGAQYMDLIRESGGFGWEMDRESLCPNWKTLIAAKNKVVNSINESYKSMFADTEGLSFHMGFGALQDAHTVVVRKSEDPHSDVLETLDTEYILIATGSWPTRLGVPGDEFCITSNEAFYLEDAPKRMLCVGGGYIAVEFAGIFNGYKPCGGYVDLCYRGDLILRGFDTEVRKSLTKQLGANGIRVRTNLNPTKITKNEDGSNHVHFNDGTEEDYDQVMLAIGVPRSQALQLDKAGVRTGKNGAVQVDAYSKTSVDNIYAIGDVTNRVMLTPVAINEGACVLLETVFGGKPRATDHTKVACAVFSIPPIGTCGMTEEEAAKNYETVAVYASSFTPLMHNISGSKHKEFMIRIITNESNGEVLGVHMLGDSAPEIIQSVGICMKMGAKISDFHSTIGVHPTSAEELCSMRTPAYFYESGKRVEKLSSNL

| Compound | EC50 [1] [µM] | EC50 [2] [µM] | Negative ROS (unstressed population) [7, 8] [%] | Positive ROS (stressed population) [7, 8] [%] | Ki (L. donovani TryR) [µM] | Type of inhibition (L. donovani TryR) | CC50 at 72 h [3, 9] [µM] | CC50 at 72 h [4, 10] [µM] | CC50 at 72 h [5, 11] [µM] | CC50 at 72 h [6, 12] [µM] | Ki (L. donovani TryR; [13]) [µM] | other results |
| --- | --- | --- | --- | --- | --- | --- | --- | --- | --- | --- | --- | --- |
| CC(=O)OC(OC(C)=O)c1ccc([N+](=O)[O-])o1 [5-nitro-2-furaldehide diacetate, 5-Nitro-2-furaldehyde diacetate] | 3.48 ± 0.09 | 4.6 ± 0.26 | 31.1 | 68.9 | 77.2 ± 21.9 | Uncompetitive |  |  |  |  |  | CC50 at 72 h [3]: 24.1 ± 0.59 µM; CC50 at 72 h [4]: 15.6 ± 1.27 µM; CC50 at 72 h [5]: 11 ± 0.28 µM; CC50 at 72 h [6]: 11.9 ± 0.46 µM |
| N#Cc1ccc([N+](=O)[O-])o1 [5-nitro-2-furonitrile, 5-Nitro-2-furonitrile] | 0.7 ± 0.05 | 1.45 ± 0.11 | 38.2 | 61.8 |  | Competitive | 21.7 ± 0.39 | 31.2 ± 5.04 | 8.49 ± 0.52 | 25.8 ± 0.6 | 24.8 ± 1.43 |  |
| O=C1OCCN1/N=C/c1ccc([N+](=O)[O-])o1 [Furazolidone] | 0.17 ± 0.01 | 0.09 ± 0.004 | 45.9 | 54.1 ± 5.8 | 13.7 ± 2.76 | Uncompetitive |  |  |  |  |  | Positive ROS (stressed population) ([7]; compound at its axenic EC50, 3 h, listed as FURAZOLIDONE): 54.1% |
| OO [H2O2] |  |  |  |  |  |  |  |  |  |  |  | Negative ROS (unstressed population) [7, 14]: 28.5%; Positive ROS (stressed population) [7, 14]: 71.5% |
| CSCC1CN(/N=C/c2ccc([N+](=O)[O-])o2)C(=O)O1 (stereo not drawn) [Nifuratel] |  |  |  |  |  |  |  |  |  |  |  | reduction of parasite load (Leishmania): > 70%; outcome in cutaneous leishmaniasis model (L. major): complete remission |
| CC1CS(=O)(=O)CCN1/N=C/c1ccc([N+](=O)[O-])o1 (stereo not drawn) [Nifurtimox] | 3.96 ± 0.37 | 1 ± 0.07 | 31.9 | 68.1 | 33.5 ± 6.93 | Uncompetitive | 84.9 ± 12.4 | 50.5 ± 2.25 |  |  |  | CC50 at 72 h ([5]; 72 h, alamarBlue, uninfected mice, read-out: Splenocytes CC50): 37.8 ± 6.12 µM; CC50 at 72 h ([6]; 72 h, alamarBlue, uninfected mice, read-out: BMDM CC50): 60.2 ± 4.79 µM |
| O=C1CN(/N=C/c2ccc([N+](=O)[O-])o2)C(=O)N1 [Nitrofurantoin] | 1.46 ± 0.08 | 2.1 ± 0.26 | 23.9 | 76.1 ± 11.6 | 31.2 ± 4.94 | Uncompetitive | 32 ± 4.58 | 37.2 ± 7.05 | 33.2 ± 3.5 | 56.3 ± 9.06 |  | Positive ROS (stressed population) ([7]; compound at its axenic EC50, 3 h, listed as NITROFURANTOIN): 76.1% |
| NC(=O)N/N=C/c1ccc([N+](=O)[O-])o1 [Nitrofurazone] | 0.49 ± 0.03 | 0.49 ± 0.11 | 44.1 | 55.9 |  | Uncompetitive | 65.5 ± 9.67 | 39.6 ± 7.91 | 38.9 ± 6.32 | 40.6 ± 1.97 | 25.8 ± 4.83 | Mutagenic effect TA100-S9 (S. typhimurium TA100; 0.5 μM): + (0.05); Mutagenic effect TA100 (S. typhimurium TA100; 0.5 μM): + (0.001); Mutagenic effect TA100-S9 (S. typhimurium TA100; 5.0 μM): + (0.001); Mutagenic effect TA100 (S. typhimurium TA100; 5.0 μM): + (0.05); Mutagenic effect TA100-S9 (S. typhimurium TA100; 50.0 μM): - ^b; Mutagenic effect TA100 (S. typhimurium TA100; 50.0 μM): - ^b |
| O=C1NN(c2ccc(F)c(Cl)c2)C(=O)C1=Cc1ccc([N+](=O)[O-])o1 [PYZD-4409, 1-(3-chloro-4-fluorophenyl)-4-[(5-nitro-2-furyl)methylene]-3,5-pyrazolidinedione] | 1.27 ± 0.04 | > 100 | 36.9 | 63.1 |  | Competitive | 16.3 ± 0.56 | 51.7 ± 8.03 | 11.7 ± 0.5 | 20.8 ± 6.4 | 7.63 ± 2.56 |  |

From paper PMC12344264, “Mechanistic, in-silico and in vitro studies with nitrofurans reveal potent leishmanicidal activity and inhibition of trypanothione reductase” (International Journal for Parasitology: Drugs and Drug …, 2025)
